Laboratory results taken from ChEMBL document CHEMBL1770050, “Effect of carbohydrate amino group modifications on the cytotoxicity of glycosylated 2-phenyl-benzo[b]thiophenes and 2-phenyl-benzo[b]furans” (Bioorg Med Chem Lett, 2011).
One block for each molecule: values may come before it.

Legend:
HepG2 [1] = experiment: Cytotoxicity against human HepG2 cells after 3 days by MTS assay; assay type: functional, cell-based; settings: HepG2, 72 h
HT-29 [2] = experiment: Cytotoxicity against human HT-29 cells after 3 days by MTS assay; assay type: functional, cell-based; settings: HT-29, 72 h
MCF7 [3] = experiment: Cytotoxicity against human MCF7 cells after 3 days by MTS assay; assay type: functional, cell-based; settings: MCF7, 72 h
Nucleic Acid = experiment: Binding affinity to Sheared herring sperm DNA assessed as remaining displaced EtBr by fluorescent intercalator displacement assay; assay type: nucleic-acid assay; parameters: concentration or dose not given beside the values
HepG2 [4] = experiment: Cytotoxicity against human HepG2 cells assessed as cell viability at 25 uM after 3 days by MTS assay; assay type: functional; settings: HepG2, 72 h, read-out: Activity
HT-29 [5] = experiment: Cytotoxicity against human HT-29 cells assessed as cell viability at 25 uM after 3 days by MTS assay; assay type: functional; settings: HT-29, 72 h, read-out: Activity
MCF7 [6] = experiment: Cytotoxicity against human MCF7 cells assessed as cell viability at 25 uM after 3 days by MTS assay; assay type: functional; settings: MCF7, 72 h, read-out: Activity
MCF7 [7] = experiment: Cytotoxicity against human MCF7 cells at 25 µM after 3 days by MTS assay; settings: MCF7, 72 h

SMILES: C[C@@H]1O[C@@H](OCC#Cc2c(-c3ccccc3)oc3ccccc23)CC[C@@H]1NCC1CCCCC1
IC50 (HepG2 [1]): > 25 µM
IC50 (HT-29 [2]): 10.2 µM
IC50 (MCF7 [3]): > 25 µM

SMILES: COc1ccc(CN[C@H]2CC[C@H](OCC#Cc3c(-c4ccccc4)sc4ccccc34)O[C@H]2C)cc1
IC50 (HepG2 [1]): > 25 µM
IC50 (HT-29 [2]): 6.2 µM
IC50 (MCF7 [3]): > 25 µM

SMILES: C[C@@H]1O[C@@H](OCC#Cc2c(-c3ccccc3)sc3ccccc23)CC[C@@H]1N(C)CC#N
IC50 (HepG2 [1]): 12.3 µM
IC50 (HT-29 [2]): 6.2 µM
IC50 (MCF7 [3]): 7.7 µM

Activity (Nucleic Acid): 52.9%
SMILES: C[C@H](N)C(=O)N[C@H]1CC[C@H](OCC#Cc2c(-c3ccccc3)oc3ccccc23)O[C@H]1C
IC50 (HepG2 [1]): 4.1 µM
IC50 (HT-29 [2]): 6.8 µM
IC50 (MCF7 [3]): 8 µM

SMILES: CC(C)CCN(CCC(C)C)[C@H]1CC[C@H](OCC#Cc2c(-c3ccccc3)oc3ccccc23)O[C@H]1C
IC50 (HepG2 [1]): > 25 µM
IC50 (HT-29 [2]): > 25 µM
IC50 (MCF7 [3]): > 25 µM

SMILES: C[C@@H]1O[C@@H](OCC#Cc2c(-c3ccccc3)oc3ccccc23)CC[C@@H]1NCc1ccc[nH]1
IC50 (HepG2 [1]): 20.8 µM
viability at 25 µM (HepG2 [4]): < 1%
viability at 25 µM (HT-29 [5]): < 1%
viability at 25 µM (MCF7 [6]): 14%
IC50 (HT-29 [2]): 11.1 µM
IC50 (MCF7 [3]): 18.1 µM

SMILES: CCN(CC)[C@H]1CC[C@H](OCC#Cc2c(-c3ccccc3)oc3ccccc23)O[C@H]1C
IC50 (HepG2 [1]): 10.7 µM
IC50 (HT-29 [2]): 6.8 µM
IC50 (MCF7 [3]): 9.7 µM

Activity (Nucleic Acid): 68.5%
SMILES: C[C@@H]1O[C@@H](OCC#Cc2c(-c3ccccc3)oc3ccccc23)CC[C@@H]1N
viability at 25 µM (HepG2 [4]): < 1%
viability at 25 µM (HT-29 [5]): < 1%
viability at 25 µM (MCF7 [6]): < 1%

SMILES: CCCCN[C@H]1CC[C@H](OCC#Cc2c(-c3ccccc3)sc3ccccc23)O[C@H]1C
IC50 (HepG2 [1]): 18.6 µM
IC50 (HT-29 [2]): 7 µM
IC50 (MCF7 [3]): 10.2 µM

SMILES: CN[C@H]1CC[C@H](OCC#Cc2c(-c3ccccc3)sc3ccccc23)O[C@H]1C
IC50 (HepG2 [1]): 8.8 µM
IC50 (HT-29 [2]): 5.4 µM
IC50 (MCF7 [3]): 7.1 µM

SMILES: CCCCCCN[C@H]1CC[C@H](OCC#Cc2c(-c3ccccc3)sc3ccccc23)O[C@H]1C
IC50 (HepG2 [1]): 19.1 µM
IC50 (HT-29 [2]): 5.1 µM
IC50 (MCF7 [3]): 6.8 µM

SMILES: C[C@@H]1O[C@@H](OCC#Cc2c(-c3ccccc3)oc3ccccc23)CC[C@@H]1NCc1ccc(O)cc1
IC50 (HepG2 [1]): 13.4 µM
viability at 25 µM (HepG2 [4]): < 1%
viability at 25 µM (HT-29 [5]): < 1%
viability at 25 µM (MCF7 [6]): 2%
IC50 (HT-29 [2]): 5.8 µM
IC50 (MCF7 [3]): 10.9 µM

SMILES: CC(C)CCN[C@H]1CC[C@H](OCC#Cc2c(-c3ccccc3)oc3ccccc23)O[C@H]1C
IC50 (HepG2 [1]): 13.6 µM
IC50 (HT-29 [2]): 6.6 µM
IC50 (MCF7 [3]): 11.3 µM

SMILES: C[C@@H]1O[C@@H](OCC#Cc2c(-c3ccccc3)oc3ccccc23)CC[C@@H]1NCc1ccccc1
IC50 (HepG2 [1]): > 25 µM
viability at 25 µM (HepG2 [4]): 87%
viability at 25 µM (HT-29 [5]): 31%
viability at 25 µM (MCF7 [6]): 72%
IC50 (HT-29 [2]): 17.9 µM
IC50 (MCF7 [3]): > 25 µM

SMILES: CCN[C@H]1CC[C@H](OCC#Cc2c(-c3ccccc3)sc3ccccc23)O[C@H]1C
IC50 (HepG2 [1]): 6.6 µM
IC50 (HT-29 [2]): 3.4 µM
IC50 (MCF7 [3]): 5.9 µM

SMILES: C[C@@H]1O[C@@H](OCC#Cc2c(-c3ccccc3)sc3ccccc23)CC[C@@H]1NCc1ccccc1
IC50 (HepG2 [1]): > 25 µM
IC50 (HT-29 [2]): 19 µM
IC50 (MCF7 [3]): > 25 µM

SMILES: C[C@@H]1O[C@@H](OCC#Cc2c(-c3ccccc3)oc3ccccc23)CC[C@@H]1N(C)C
IC50 (HepG2 [1]): 6.8 µM
IC50 (HT-29 [2]): 6.1 µM
IC50 (MCF7 [3]): 10.3 µM

SMILES: CCN(CC)[C@H]1CC[C@H](OCC#Cc2c(-c3ccccc3)sc3ccccc23)O[C@H]1C
IC50 (HepG2 [1]): 11.7 µM
IC50 (HT-29 [2]): 3.9 µM
IC50 (MCF7 [3]): 12 µM

SMILES: CCCCN(CCCC)[C@H]1CC[C@H](OCC#Cc2c(-c3ccccc3)sc3ccccc23)O[C@H]1C
IC50 (HepG2 [1]): > 25 µM
IC50 (HT-29 [2]): > 25 µM
IC50 (MCF7 [3]): > 25 µM

SMILES: C[C@@H]1O[C@@H](OCC#Cc2c(-c3ccccc3)oc3ccccc23)CC[C@@H]1NCc1ccc([N+](=O)[O-])cc1
IC50 (HepG2 [1]): > 25 µM
viability at 25 µM (HepG2 [4]): 94%
viability at 25 µM (HT-29 [5]): 59%
viability at 25 µM (MCF7 [6]): 86%
IC50 (HT-29 [2]): > 25 µM
IC50 (MCF7 [3]): > 25 µM

SMILES: COc1cc(CN[C@H]2CC[C@H](OCC#Cc3c(-c4ccccc4)oc4ccccc34)O[C@H]2C)cc(OC)c1OC
IC50 (HepG2 [1]): 11.3 µM
cell viability at 25 µM (MCF7 [7]): 30%
viability at 25 µM (HepG2 [4]): 7%
viability at 25 µM (HT-29 [5]): 6%
viability at 25 µM (MCF7 [6]): 30%
IC50 (HT-29 [2]): 8 µM

SMILES: CCCCN[C@H]1CC[C@H](OCC#Cc2c(-c3ccccc3)oc3ccccc23)O[C@H]1C
IC50 (HepG2 [1]): 19 µM
IC50 (HT-29 [2]): 9.8 µM
IC50 (MCF7 [3]): 20.8 µM

SMILES: C[C@@H]1O[C@@H](OCC#Cc2c(-c3ccccc3)sc3ccccc23)CC[C@@H]1N(C)C
IC50 (HepG2 [1]): 10 µM
IC50 (HT-29 [2]): 3.3 µM
IC50 (MCF7 [3]): 8.2 µM

Activity (Nucleic Acid): 79%
SMILES: CC(C)N[C@H]1CC[C@H](OCC#Cc2c(-c3ccccc3)oc3ccccc23)O[C@H]1C
IC50 (HepG2 [1]): 13 µM
IC50 (HT-29 [2]): 5.8 µM
IC50 (MCF7 [3]): 12.6 µM

SMILES: C[C@@H]1O[C@@H](OCC#Cc2c(-c3ccccc3)sc3ccccc23)CC[C@@H]1NCC#N
IC50 (HepG2 [1]): 18 µM
IC50 (HT-29 [2]): 10.8 µM
IC50 (MCF7 [3]): 10.5 µM

SMILES: Cc1ccc(CN[C@H]2CC[C@H](OCC#Cc3c(-c4ccccc4)oc4ccccc34)O[C@H]2C)cc1
IC50 (HepG2 [1]): > 25 µM
viability at 25 µM (HepG2 [4]): 65%
viability at 25 µM (HT-29 [5]): 29%
viability at 25 µM (MCF7 [6]): 51%
IC50 (HT-29 [2]): 11.9 µM
IC50 (MCF7 [3]): > 25 µM

SMILES: CCCCN(CCCC)[C@H]1CC[C@H](OCC#Cc2c(-c3ccccc3)oc3ccccc23)O[C@H]1C
IC50 (HepG2 [1]): > 25 µM
IC50 (HT-29 [2]): > 25 µM
IC50 (MCF7 [3]): > 25 µM

Activity (Nucleic Acid): 98.6%
SMILES: CC(=O)N[C@H]1CC[C@H](OCC#Cc2c(-c3ccccc3)oc3ccccc23)O[C@H]1C
IC50 (HepG2 [1]): 18.2 µM
IC50 (HT-29 [2]): 13.3 µM
IC50 (MCF7 [3]): 23.4 µM

SMILES: COc1ccc(CN[C@H]2CC[C@H](OCC#Cc3c(-c4ccccc4)oc4ccccc34)O[C@H]2C)cc1
IC50 (HepG2 [1]): 13.1 µM
cell viability at 25 µM (MCF7 [7]): 31%
viability at 25 µM (HepG2 [4]): 12%
viability at 25 µM (HT-29 [5]): 8%
viability at 25 µM (MCF7 [6]): 31%
IC50 (HT-29 [2]): 7.9 µM

Activity (Nucleic Acid): 26%
SMILES: CCN[C@H]1CC[C@H](OCC#Cc2c(-c3ccccc3)oc3ccccc23)O[C@H]1C
IC50 (HepG2 [1]): 6 µM
IC50 (HT-29 [2]): 5.8 µM
IC50 (MCF7 [3]): 9.2 µM

SMILES: C[C@@H]1O[C@@H](OCC#Cc2c(-c3ccccc3)sc3ccccc23)CC[C@@H]1NCc1ccc(O)cc1
IC50 (HepG2 [1]): 20.3 µM
IC50 (HT-29 [2]): 5.1 µM
IC50 (MCF7 [3]): 12 µM

SMILES: CCCCCCN[C@H]1CC[C@H](OCC#Cc2c(-c3ccccc3)oc3ccccc23)O[C@H]1C
IC50 (HepG2 [1]): 14.4 µM
IC50 (HT-29 [2]): 6 µM
IC50 (MCF7 [3]): 14.8 µM

SMILES: C[C@@H]1O[C@@H](OCC#Cc2c(-c3ccccc3)oc3ccccc23)CC[C@@H]1NCc1ccco1
IC50 (HepG2 [1]): > 25 µM
viability at 25 µM (HepG2 [4]): 70%
viability at 25 µM (HT-29 [5]): 24%
viability at 25 µM (MCF7 [6]): 77%
IC50 (HT-29 [2]): 15.2 µM
IC50 (MCF7 [3]): > 25 µM

SMILES: C[C@@H]1O[C@@H](OCC#Cc2c(-c3ccccc3)oc3ccccc23)CC[C@@H]1NCc1ccccn1
IC50 (HepG2 [1]): 16.3 µM
viability at 25 µM (HepG2 [4]): < 1%
viability at 25 µM (HT-29 [5]): < 1%
viability at 25 µM (MCF7 [6]): 11%
IC50 (HT-29 [2]): 10.8 µM
IC50 (MCF7 [3]): 14.3 µM
